Data as given in US20130172342A1, “BENZIMIDAZOLE DERIVATIVES AS SELECTIVE BLOCKERS OF PERSISTENT SODIUM CURRENT” (Allergan, Inc., priority 2011, published 2013).

Columns and labels:
Assay type in all cases: cell-based
[1] = tested on: transient sodium currents; test: IonWorks automated patch clamp, whole-cell voltage clamp; details: inhibition of transient sodium currents, read-out: IW IC50
Method: To determine the selectivity of effects of these compounds on the persistent current, the inhibition of transient sodium currents using an automated patch clamp was also tested for the compounds. For direct measurement of Na+ currents the IonWorks automated patch clamp system was used. The IonWorks system is a high-throughput electrophysiological instrument that performs whole-cell voltage clamp recordings in a 384-well plate format.

[2] = tested on: persistent sodium currents; test: FLIPR sodium depletion/repletion assay (voltage-sensitive dyes); details: for IC50: 8-point concentration-response, antagonism of persistent current; for HTS % Block: single concentration HTS protocol, inhibition of the control response
Method: To identify compounds that block persistent sodium currents, they were tested in a sodium depletion/repletion assay in which changes in the fluorescence of voltage-sensitive dyes measured in a Fluorometric Imaging Plate Reader (FLIPR) were used to infer the effects of the compounds on persistent sodium currents. The compounds were first tested in a single concentration HTS protocol.

[3] = tested on: Nav1.3 or Nav1.6 channels; test: gigohm-seal manual patch-clamp (MPC) in HEK cells stably transfected with sodium channels; details: for block of persistent versus transient sodium currents: FIG. 1, percentage of control current at steady state, n=3; for concentration effective in blocking 50% of the persistent current: HEK cells expressing Nav1.3 or Nav1.6, FIG. 1
Method: Nav1.3 or Nav1.6 channels were expressed in HEK cells, currents were measured using standard MPC electrophysiological techniques. Data are summarized from at least 3 experiments for each concentration tested and were normalized to the control currents before compound addition. Data are presented as the mean and standard error of the mean (n=3) of the percentage of the control current observed at steady state after compound addition.
Therefore, the efficacy and selectivity of the identified persistent current antagonists were verified using conventional gigohm-seal manual patch-clamp (MPC).
MPC experiments were conducted on human embroynic kidney (HEK) cells stably transfected with sodium channels were plated on coverslips. Cells were patch clamped using standard patch-clamp techniques (Hamill, O. P., A. Marty, et al., 1981 Pflugers Arch. 391:85-100). Once sufficient persistent current was established, buffer was introduced into the chamber at a constant flow rate of […] until the persistent current stabilized. Subsequent concentration-response experiments were conducted using this same flow rate. After application of the compound, current amplitude was monitored until equilibrium was established. The data recorded at equilibrium was normalized to the control current measured during perfusion with control buffer in the absence of a test compound. Adequate solution perfusion and gigohm seal stability were monitored throughout the experiment. The compound's antagonism of persistent or transient sodium currents is expressed as the IC5O of block for the respective current (see Table 1). Selectivity for block of the persistent current was calculated as the ratio of the IC5O for the transient current divided by the IC5O for the persistent current.
Direct measurement of the sodium current in cells expressing either Nav1.3 or
As shown for the exemplary compounds (compound #1 in Table 1 and Compound A shown below)

SMILES	IC50 [1] [µM]	IC50 [2] [µM]	HTS % Block [2] [%]	block of persistent versus transient sodium currents [3]	concentration effective in blocking 50% of the persistent current [3]
Cc1ccc(C)c(OCCn2c(CN3CCCCC3)nc3ccccc32)c1	22.8	0.559	88.9	–	–
CCn1c(C(C)N2CCCCC2)nc2ccccc21 (stereo not drawn)	> 30	16.3	90.6	–	–
COc1ccc(OCCn2c(C(C)N3CCOCC3)nc3ccccc32)cc1 (stereo not drawn)	> 30	9.81	92.9	–	–
Cc1ccccc1OCCn1c(CN2CCCCC2)nc2ccccc21	> 30	5.56	93.6	–	–
Cc1ccc(OCCn2c(CN3CCCCC3)nc3ccccc32)cc1C	23.4	0.589	80.1	–	–
COc1ccc(OCCn2c(C(C)N3CCCCC3)nc3ccccc32)cc1 (stereo not drawn)	> 30	0.95	95.2	–	–
Cc1cccc(C)c1OCCn1c(CN2CCCCC2)nc2ccccc21 [Compound #1, 1-[2-(2,6-Dimethylphenoxy)ethyl]-2-piperidin-1-ylmethyl-1H-benzimidazole]	> 30	0.066	–	effective in blocking persistent sodium currents at concentrations that did not affect transient currents	low to submicromolar
C/C=C/c1ccc(OCCn2c(C(C)N3CCCCC3)nc3ccccc32)c(OC)c1 (stereo not drawn)	> 30	> 30	34.6	–	–
Clc1ccc(OCCn2c(CN3CCCCC3)nc3ccccc32)cc1	27.8	1.46	80.7	–	–
COc1ccc(OCCn2c(CN3CCOCC3)nc3ccccc32)cc1	> 30	> 30	57.7	–	–
COc1ccccc1OCCCCn1c(CN2CCCCC2)nc2ccccc21	> 30	0.83	95.5	–	–
COc1cccc(OCCn2c(CN3CCCCC3)nc3ccccc32)c1	> 30	0.521	96.5	–	–
COc1ccccc1OCCn1c(CN2CCCCC2)nc2ccccc21	> 30	0.347	94.8	–	–
Cc1ccc(C(C)C)c(OCCn2c(CN3CCOCC3)nc3ccccc32)c1 [Compound A]	–	–	–	effective in blocking persistent sodium currents at concentrations that did not affect transient currents	low to submicromolar
Cc1ccc(OCCn2c(CN3CCCCC3)nc3ccccc32)cc1	> 30	0.751	94.6	–	–
C=CCc1ccc(OCCn2c(CN3CCOCC3)nc3ccccc32)c(OC)c1	≥ 30	5.12	70.7	–	–
CC(C)N(C(=O)Cn1c(CN2CCCCC2)nc2ccccc21)c1ccccc1	> 30	6.35	84.2	–	–

Second part, led by results:

IC50 [1] [µM]	IC50 [2] [µM]	SMILES	HTS % Block [2] [%]	block of persistent versus transient sodium currents [3]	concentration effective in blocking 50% of the persistent current [3]
> 30	7.79	c1ccc(OCCn2c(CN3CCOCC3)nc3ccccc32)cc1	99.2	–	–
> 30	18.2	C/C=C/c1ccc(OCCn2c(CN3CCOCC3)nc3ccccc32)c(OC)c1	75.7	–	–
> 30	1.14	C=CCc1ccccc1OCCn1c(CN2CCOCC2)nc2ccccc21	91.5	–	–
> 30	6.38	Cc1ccc(OCCn2c(CN3CCOCC3)nc3ccccc32)cc1	92.3	–	–
> 30	2.3	Cc1ccc(C)c(OCCn2c(CN3CCOCC3)nc3ccccc32)c1	92.7	–	–
13.8	0.452	Cc1cccc(OCCn2c(CN3CCCCC3)nc3ccccc32)c1C	78.9	–	–
30	3.67	CCc1ccc(OCCn2c(CN3CCOCC3)nc3ccccc32)cc1	90.8	–	–
> 30	7.85	Cc1cccc(OCCn2c(CN3CCOCC3)nc3ccccc32)c1	86.5	–	–
> 30	3.24	Cc1ccccc1OCCn1c(CN2CCOCC2)nc2ccccc21	92.7	–	–
> 30	0.852	Cc1cccc(C)c1OCCCn1c(CN2CCOCC2)nc2ccccc21	98.9	–	–
> 30	0.729	Cc1cccc(C)c1OCCn1c(CN2CCOCC2)nc2ccccc21	95.2	–	–
> 30	3.53	Cc1cccc(OCCn2c(CN3CCOCC3)nc3ccccc32)c1C	97.3	–	–
> 30	> 30	COc1ccccc1OCCn1c(CN2CCOCC2)nc2ccccc21	70.1	–	–
> 30	4.52	Cc1ccc(OCCn2c(CN3CCOCC3)nc3ccccc32)c(C)c1	79.3	–	–
> 30	1.47	Cc1cc(C)cc(OCCn2c(CN3CCOCC3)nc3ccccc32)c1	92.6	–	–
